ChEMBL document CHEMBL1135763, “Discovery of aminothiazole inhibitors of cyclin-dependent kinase 2: synthesis, X-ray crystallographic analysis, and biological activities” (J Med Chem, 2002)

Legend:
[1] = molecular target: Cyclin-dependent kinase 2/cyclin E (Homo sapiens, UniProt P24941); test: Inhibitory activity against baculovirus expressed Cyclin dependent kinase 2-cyclinE; format: protein-complex assay
[2] = molecular target: Cyclin-dependent kinase 4/cyclin D1 (Homo sapiens, UniProt P11802); test: Inhibitory activity against baculovirus expressed Cyclin dependent kinase 4-cyclinD1; format: protein-complex assay
[3] = molecular target: Cyclin-dependent kinase 1/cyclin B (Homo sapiens, UniProt P06493); test: Inhibitory activity against baculovirus expressed Cyclin dependent kinase 1-cyclinB; format: protein-complex assay
[4] = system: A2780; test: cells; conditions: Homo sapiens
Description: Cytotoxic activity against A2780 human ovarian carcinoma cell line

Chain of Cyclin-dependent kinase 4/cyclin D1 (P11802 whole entry): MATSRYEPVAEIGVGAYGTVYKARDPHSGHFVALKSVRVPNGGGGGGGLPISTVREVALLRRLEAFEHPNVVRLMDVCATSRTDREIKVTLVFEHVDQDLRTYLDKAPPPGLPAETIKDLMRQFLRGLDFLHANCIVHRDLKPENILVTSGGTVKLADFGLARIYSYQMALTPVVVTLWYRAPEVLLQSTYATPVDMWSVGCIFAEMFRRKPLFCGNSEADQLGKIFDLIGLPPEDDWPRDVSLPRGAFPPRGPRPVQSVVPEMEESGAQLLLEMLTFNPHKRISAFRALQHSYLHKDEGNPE
Chain of Cyclin-dependent kinase 4/cyclin D1 (P24385 whole entry, further chain): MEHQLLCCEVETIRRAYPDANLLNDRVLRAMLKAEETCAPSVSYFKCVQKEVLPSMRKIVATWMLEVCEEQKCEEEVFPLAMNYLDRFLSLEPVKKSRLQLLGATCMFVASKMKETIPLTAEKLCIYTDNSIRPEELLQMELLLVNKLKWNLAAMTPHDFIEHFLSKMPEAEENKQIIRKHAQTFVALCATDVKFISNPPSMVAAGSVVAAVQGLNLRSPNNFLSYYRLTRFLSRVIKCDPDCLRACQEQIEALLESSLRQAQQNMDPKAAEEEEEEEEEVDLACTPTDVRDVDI

Compound | IC50 [1] | IC50 [2] | IC50 [3] | IC50 [4]
CC(=O)Nc1ncc(SCCc2ccccc2)s1 | 12.6 µM |  |  | 
COCCSc1cnc(NC(C)=O)s1 | > 1 µM |  |  | 
CC(=O)Nc1ncc(SCc2nc(C)c(C)o2)s1 | 0.36 µM |  |  | 
CCc1coc(CSc2cnc(NC(C)=O)s2)n1 | 0.2 µM |  |  | 
CCOC(=O)CCCCCSc1cnc(NC(C)=O)s1 | > 1 µM |  |  | 
CC(=O)Nc1ncc(SCCOC(C)(C)C)s1 | 1.74 µM |  |  | 
CC(=O)Nc1ncc(SCc2ccccn2)s1 | > 1 µM |  |  | 
CC(=O)Nc1ncc(SCc2ncc(CC3CCCCC3)o2)s1 | 0.004 µM | 0.64 µM | 0.03 µM | 1.54 µM
CC(=O)Nc1ncc(SCc2ccncc2)s1 | > 1 µM |  |  | 
COC(=O)c1ccc(CSc2cnc(NC(C)=O)s2)o1 | > 1 µM |  |  | 
CC(=O)Nc1ncc(SCC(=O)O)s1 | > 25 µM |  |  | 
CC(=O)Nc1ncc(SCc2nnsc2Cl)s1 | > 1 µM |  |  | 
CCC(CC)CSc1cnc(NC(C)=O)s1 | > 1 µM |  |  | 
CCc1cnc(CSc2cnc(NC(=O)C(C)C)s2)o1 | 0.005 µM | 1.07 µM | 0.06 µM | 0.2 µM

Second part, the compound after the results:

IC50 [1] | IC50 [2] | IC50 [3] | IC50 [4] | Compound
0.006 µM | 1.07 µM | 0.06 µM | 0.2 µM | CC(=O)Nc1ncc(SCc2ncc(C(C)C)o2)s1
> 25 µM |  |  |  | CC(C)C(=O)N(C)c1ncc(SCc2ncc(C(C)(C)C)o2)s1
 | 0.96 µM |  |  | CC(C)(C)c1cnc(CSc2cnc(NC(=O)c3ccccc3)s2)o1
> 1 µM |  |  |  | CC(=O)Nc1ncc(SCCOc2ccccc2)s1
0.005 µM | 0.69 µM | 0.04 µM |  | CC(=O)Nc1ncc(SCc2ncc(C(C)(C)C)o2)s1
0.003 µM | > 1 µM | 0.03 µM | 1.5 µM | CC(C)(C)c1cnc(CSc2cnc(NC(=O)Nc3c(Cl)cccc3Cl)s2)o1
0.025 µM | 2.99 µM | 0.018 µM | 0.64 µM | CC(C)OC(=O)Nc1ncc(SCc2ncc(C(C)(C)C)o2)s1
0.006 µM | 3.13 µM |  | 0.9 µM | C[C@@H](C(=O)Nc1ncc(SCc2ncc(C(C)(C)C)o2)s1)c1ccccc1
0.05 µM |  |  | 0.12 µM | CCNC(=O)Nc1ncc(SCc2ncc(C(C)(C)C)o2)s1
0.005 µM | 0.9 µM | 0.03 µM | 0.05 µM | CC(C)C(=O)Nc1ncc(SCc2ncc(C(C)(C)C)o2)s1
0.002 µM | 0.39 µM | 0.01 µM | 0.24 µM | CC(C)(C)c1cnc(CSc2cnc(NC(=O)Nc3c(F)cccc3F)s2)o1
0.011 µM | 0.9 µM | 0.019 µM | 0.9 µM | CC(C)(C)c1cnc(CSc2cnc(NC(=O)Nc3ccc(F)cc3)s2)o1
